In patent US20190315711A1 (eXIthera Pharmaceuticals, Inc., priority 2016, published 2019):

Columns and labels:
Factor Xa = target: T1, Factor Xa (Homo sapiens, UniProt P00742); assay: Dose response assay for protease inhibitors: Factor Xa; format: biochemical; conditions: ratio versus Factor XIa
T1 construct: Factor Xa; 0.2 μM in 50% glycerol (9.2 μg/mL)
Experimental: (§1) • Assay buffer: 20 mM Hepes, pH 7.4; 150 mM NaCl; 0.02% Tween 20 • Compounds: 10 mM stocks in DMSO • Substrate: 20 mM Glp-Pro-Arg-AMC, 25 mg/2.3 mL H2O (store at +4° C.) [Factor XIa, thrombin, and trypsin] • 20 mM Pro-Phe-Arg-AMC (Bachem I-1295), 25 mg/2.2 mL H2O or Boc-Leu-Gly-Arg-AMC (Bachem I-1105), 25 mg/2.07 mL H2O (store at +4° C.) [Factor Xa] • Enzyme: Factor XIa; 0.25 M in 50% glycerol (20 μg/mL) • Trypsin; 0.2 μM in 50% glycerol (4.8 μg/mL) • Thrombin; 0.2 μM in 50% glycerol (7.34 μg/mL) • Factor Xa; 0.2 μM in 50% glycerol (9.2 μg/mL)
(§2) • 1. Dilute the substrate to 100 μM in assay buffer (30 μL/6 mL). The enzyme is diluted to 0.5 nM just prior to use (12 L/6 mL for Factor XIa; 15 μL/6 mL for all of the rest.) • 2. Pipette 50 μL of substrate into each well of the 96 well (12×8) microtiter plate. (Column 1 is used as the 100% activity control and receives no compound, and Column 12 is the blank and receives no enzyme.) Add an additional 46 μL to column 2. • 3. Pipette 4 μL of each compound into the appropriate well in column 2 of the plate (unknowns assayed in triplicate, standard assayed in duplicate). The final compound concentration will be 1/50th of the stock. • 4. Serially two-fold dilute the compound by mixing the sample in column 2, removing 50 μL to the next well (column 3), mix and remove to column 4, etc. until column 11. After mixing column 11, remove 50 μL and discard. • 5. Pipette 50 μL of buffer into column 12. Initiate the reaction by adding 50 μL of enzyme solution to each well of columns 1-11 as rapidly as possible. • 6. Read the plate in a spectrophotometer (SpectraMax) at 30° C., wherein each well is measured every 60 s for 30 min. For Factor Xa assays, each well is measured every 1 min for a total of 60 min. • 7. For Factor XIa assays, the compounds are assayed, in duplicate, at 3 different starting concentrations, 20, 2, and 0.2 μM; 1:10, 1:100, and 1:1000 dilution of 10 mM stock or at 2, 0.2, and 0.02 μM; 1:100, 1:1000, and 1:10,000 dilution of 10 mM stock. Data for each concentration are combined for graphing and data fitting. • 8. Data can be used both for estimation of IC50 and for estimation of Kon.

Thrombin = target: T2, Thrombin (Homo sapiens, UniProt P00734); assay: Dose response assay for protease inhibitors: thrombin; format: biochemical; conditions: ratio versus Factor XIa
T2 construct: Thrombin; 0.2 μM in 50% glycerol (7.34 μg/mL)
Experimental: as §1, §2

[1] = Caco-2 cell permeability assay (A-B and B-A); format: in vitro ADME; conditions: human
Experimental: The following procedure was used to determine the ability of a test compound to cross Caco-2 cells (human intestinal epithelial cells derived from a colorectal adenocarcinoma). The cells were seeded at 1×10^5 cells/cm^2 in 96-well Multiscreen™ plates (Millipore). Permeability assays were performed with the cells at days 21-25 post-seeding. Cells are typically used for 15 consecutive passages in culture.
This assay can be performed in either the apical to basolateral (A−B) or basolateral to apical (B−A) direction. The test compound was prepared at 10 μM in HBSS-MES (pH 6.5) or HBSS-HEPES (pH 7.4) with a final DMSO concentration of 1%. The working solution was then centrifuged and the supernatant added to the donor side. The assay plate was incubated at 37° C. with gentle shaking for 60 min or 40 min for the A−B or B−A assay, respectively. Samples were aliquoted from the donor side at time zero and the end point, and from the receiver side at the end point.
Reference compounds, propranolol (highly permeable), labetalol (moderately permeable), ranitidine (poorly permeable), and colchicine (P-glycoprotein substrate) were included in each assay.
Samples are analyzed by HPLC-MS/MS using selected reaction monitoring. The HPLC system consists of a binary LC pump with autosampler, a C-18 column, and a gradient.
The apparent permeability coefficient (Papp) of the test compound (Equation 2) and its recovery (Equation 3) are calculated as follows: […]
wherein A is the surface area of the cell monolayer (0.11 cm^2), C is concentration of the test compound expressed as peak area, D denotes donor, and R is receiver. “0”, “mid,” and “end” denote time at zero, mid-point, and end of the incubation, respectively. At is the incubation time. V is the volume of the donor or receiver.
This is most likely due to non-specific binding or degradation.

human Factor XIa = human Factor XIa (Homo sapiens, UniProt P03951); assay: Factor XIa enzyme inhibition assay (dose response, fluorogenic AMC substrate); format: biochemical; set-up: Enzyme: Factor XIa; conditions: purified enzyme; substrate 50 μM, enzyme 0.25 nM; read-out: hFXIa IC50
Experimental: as §1, §2
Potential inhibitors of Factor XIa were evaluated using the following assay.
PyroGlu-Pro-Arg-7-methylaminocourin (AMC), available from CPC Scientific, Inc., is based on the substrate pyro-Glu-Pro-Arg-pNA (S-2366), available from Diapharma Group, Inc. (Columbus, Ohio), wherein the p-nitroanaline group is replaced with 7-methylaminocoumarin (AMC).
The final concentration of the substrate in the assay was 50 μM, and the final concentration of the enzyme was 0.25 nM. Inhibitors were tested by serial dilution over an appropriate range to yield a dose response curve for determination of the inhibitors' IC50 value. The assay mixture was read every minute for 30 minutes in order to generate progress curves. The plates were read in a Spectramax m5 Multimode Plate Reader (Molecular Devices LLC, Sunnyvale, Calif.). Dose response curves were fit to Equation 1 below in which A is the maximum inhibition, B is the minimum inhibition, C is the IC50, and D is the Hill coefficient.
Y=[(A−B)/(1+(X/C)^D)]+B (Equation 1)

Trypsin = target: T3, Trypsin (Bos taurus, UniProt P00760); assay: Dose response assay for protease inhibitors: trypsin; format: biochemical; conditions: ratio versus Factor XIa
T3 construct: gene PRSS1
T3 sequence (P00760 24-246): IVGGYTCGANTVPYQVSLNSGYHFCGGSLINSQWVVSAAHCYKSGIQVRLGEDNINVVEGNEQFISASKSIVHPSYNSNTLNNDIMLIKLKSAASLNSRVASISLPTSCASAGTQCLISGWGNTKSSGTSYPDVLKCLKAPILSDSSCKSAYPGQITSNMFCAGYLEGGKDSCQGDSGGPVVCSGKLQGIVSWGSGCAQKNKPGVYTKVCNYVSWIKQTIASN
Experimental: as §1, §2

Chain of human Factor XIa (P03951 388-625 limits assumed): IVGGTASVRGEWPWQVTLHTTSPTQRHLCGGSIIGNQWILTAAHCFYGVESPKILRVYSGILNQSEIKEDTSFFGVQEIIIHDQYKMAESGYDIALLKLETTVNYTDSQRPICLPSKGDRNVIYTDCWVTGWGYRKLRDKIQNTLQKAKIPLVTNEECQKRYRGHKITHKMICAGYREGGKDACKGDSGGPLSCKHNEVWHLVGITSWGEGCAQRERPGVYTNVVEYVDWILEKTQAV
Chain of human Factor XIa (P03951 19-387 partner limits assumed): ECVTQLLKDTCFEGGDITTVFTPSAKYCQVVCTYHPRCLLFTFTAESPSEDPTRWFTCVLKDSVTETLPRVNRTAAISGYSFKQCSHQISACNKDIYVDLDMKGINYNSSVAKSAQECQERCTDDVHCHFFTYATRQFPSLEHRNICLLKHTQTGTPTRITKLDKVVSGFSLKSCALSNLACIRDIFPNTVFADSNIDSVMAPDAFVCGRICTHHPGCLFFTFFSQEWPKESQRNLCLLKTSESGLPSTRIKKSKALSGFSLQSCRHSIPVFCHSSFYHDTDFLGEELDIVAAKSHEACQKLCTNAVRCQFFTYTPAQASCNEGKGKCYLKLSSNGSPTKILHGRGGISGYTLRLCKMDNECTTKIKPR
T1 sequence (P00742 235-488 limits assumed): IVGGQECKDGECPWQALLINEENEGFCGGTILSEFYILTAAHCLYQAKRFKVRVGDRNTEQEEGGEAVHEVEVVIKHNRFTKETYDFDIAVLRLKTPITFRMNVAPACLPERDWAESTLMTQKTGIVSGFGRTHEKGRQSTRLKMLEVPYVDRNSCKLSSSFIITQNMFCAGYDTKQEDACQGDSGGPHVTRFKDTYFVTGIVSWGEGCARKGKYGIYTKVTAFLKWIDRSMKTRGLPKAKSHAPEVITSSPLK
T1 sequence (P00742 41-179 partner limits assumed): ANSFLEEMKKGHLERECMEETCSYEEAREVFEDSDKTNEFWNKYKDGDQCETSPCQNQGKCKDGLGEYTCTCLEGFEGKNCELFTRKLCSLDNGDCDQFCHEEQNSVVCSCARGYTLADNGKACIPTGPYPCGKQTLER

| Compound | FXa/FXIa (selectivity ratio) (Factor Xa) | Ratio: Thrombin/FXIa (Thrombin) | Papp A→B at 60 min, 10 μM ([1]; A-B direction) [×10⁻⁶ cm/s] | Papp B→A at 40 min, 10 μM ([1]; B-A direction) [×10⁻⁶ cm/s] | IC50 (human Factor XIa) [nM] | Ratio: Trypsin/FXIa (Trypsin) |
| --- | --- | --- | --- | --- | --- | --- |
| CN(C(=O)[C@@H]1[C@@H](Cc2ccnc(N)c2)C(=O)N1C(=O)N[C@@H](C1CC1)C(F)(F)F)c1ccccc1 [Compound 70] | I (“I” indicates >500) | G (“G” indicates 1-100) | 11 to 30 | 31 to 50 | 10 to 100 |  |
| CCN(C(=O)[C@@H]1[C@@H](Cc2ccnc(N)c2)C(=O)N1C(=O)N[C@@H](C1CC1)C(F)(F)F)c1ncccn1 [Compound 79] | H (“H” indicates 101-1000) | H (“H” indicates 101-1000) |  |  | 10 to 100 |  |
| CC[C@@H](NC(=O)N1C(=O)[C@H](Cc2ccnc(N)c2)[C@H]1C(=O)N(C)c1ccncc1)c1ccccc1C [Compound 96] | I (“I” indicates >500) |  |  |  | 10 to 100 |  |
| CC[C@@H](NC(=O)N1C(=O)[C@H](Cc2ccnc(N)c2)[C@H]1C(=O)N(C)c1ccncc1)c1cccc(Br)c1 [Compound 98] | H (“H” indicates 101-1000) | H (“H” indicates 101-1000) |  |  | < 10 | G (“G” indicates 1-100) |
| CC[C@@H](NC(=O)N1C(=O)[C@H](Cc2ccnc(N)c2)[C@H]1C(=O)N(C)c1ccncc1)c1ccc(C)nc1 [Compound 104] | I (“I” indicates >500) | H (“H” indicates 101-1000) |  |  | < 10 | H (“H” indicates 101-1000) |
| CC[C@@H](NC(=O)N1C(=O)[C@H](Cc2ccnc(N)c2)[C@H]1C(=O)N(C)c1ccncc1)c1cc(Cl)ccc1Cl [Compound 112] | H (“H” indicates 101-1000) | H (“H” indicates 101-1000) |  |  | < 10 | G (“G” indicates 1-100) |
| CC[C@@H](NC(=O)N1C(=O)[C@H](Cc2ccnc(N)c2)[C@H]1C(=O)N(C)c1cccc(F)c1)c1cccc(Cl)c1 [Compound 116] | H (“H” indicates 101-1000) | H (“H” indicates 101-1000) |  |  | < 10 | G (“G” indicates 1-100) |
| CC[C@@H](NC(=O)N1C(=O)[C@H](Cc2ccnc(N)c2)[C@H]1C(=O)N(C)c1cccc(C)c1)c1cccc(Cl)c1 [Compound 117] | H (“H” indicates 101-1000) | G (“G” indicates 1-100) |  |  | < 10 | G (“G” indicates 1-100) |
| CC[C@@H](NC(=O)N1C(=O)[C@H](Cc2ccnc(N)c2)[C@H]1C(=O)N(C)c1cccc(Cl)c1)c1cccc(Cl)c1 [Compound 118] | H (“H” indicates 101-1000) | G (“G” indicates 1-100) |  |  | < 10 | G (“G” indicates 1-100) |
| CC[C@@H](NC(=O)N1C(=O)[C@H](Cc2cc(C)nc(N)c2)[C@H]1C(=O)N(C)c1ccccc1)c1ccccc1 [Compound 119] | I (“I” indicates >500) | H (“H” indicates 101-1000) |  |  | < 10 | G (“G” indicates 1-100) |
